Target: T1, rat P2X4 rT186A mutant (Rattus norvegicus, UniProt P51577, T186A)
T1 construct: rat P2X4 (NP_113782.1; WT and mutants) were transcribed from pGEMHE plasmids; expressed in transfected cells; host or cells: Xenopus laevis oocytes injected with cRNA from pGEMHE
T1 sequence (P51577 1-388 T186A): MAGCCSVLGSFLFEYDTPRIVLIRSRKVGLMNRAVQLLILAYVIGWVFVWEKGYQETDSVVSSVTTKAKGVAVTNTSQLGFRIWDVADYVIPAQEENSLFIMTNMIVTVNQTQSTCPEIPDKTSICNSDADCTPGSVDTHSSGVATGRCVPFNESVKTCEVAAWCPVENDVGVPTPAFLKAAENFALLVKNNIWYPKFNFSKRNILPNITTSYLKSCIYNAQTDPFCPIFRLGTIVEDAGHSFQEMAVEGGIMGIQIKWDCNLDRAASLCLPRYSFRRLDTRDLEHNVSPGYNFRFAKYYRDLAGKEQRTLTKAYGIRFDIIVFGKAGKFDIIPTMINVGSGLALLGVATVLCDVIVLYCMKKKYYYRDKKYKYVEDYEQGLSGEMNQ
Assay: Two-Electrode Voltage Clamp recording, rat P2X4 T186A mutant in Xenopus oocytes
Assay type: cell-based
Details: 3 mM ATP, 3 mM CTP (Fig. S3)
From the text: To further investigate the functional roles of the residues involved in the base recognition, T189 and R143, we performed an electrophysiological analysis with the rat P2X4, since its electrophysiological properties have been well established. We first assessed the functional role of T189 in zfP2X4 and introduced mutations at the equivalent residue of the rat P2X4 to create three mutants (^rT186A, ^rT186V and ^rT186S; the superscript “r” means rat P2X4). […] Therefore, we examined the ^rWT and the ^rT186S mutant.
The cRNAs encoding zebrafish P2X4 (NP_705939; WT) and rat P2X4 (NP_113782.1; WT and mutants) were transcribed from pGEMHE plasmids, using a mMessage mMachine® T7 ULTRA kit (Ambion, Huntingdon, Cambridgeshire, UK). Xenopus laevis oocytes were prepared, and RNA (100 ng for zebrafish P2X4, and 20 ng for rat P2X4) was injected into the oocytes. The oocytes were incubated at 18 °C in Barth’s solution, containing 88 mM NaCl, 1 mM KCl, 2.4 mM NaHCO3, 10 mM HEPES, 0.33 mM Ca(NO3)2, 0.41 mM CaCl2, and 0.82 mM MgSO4, pH 7.4, supplemented with 50 μg/ml gentamicin, and were used for recording after 2–3 days. […] Oocytes were held at −70 mV with a bath-clamp amplifier (OC-725C, Warner Co., USA), and macroscopic currents were recorded and analyzed using the pClamp 10 software (Molecular Devices, USA)[33][34]. We measured n = 4 for zebrafish P2X4 data and n = 7–9 for rat P2X4 data. […]

Nc1ncnc2c1ncn2[C@@H]1O[C@H](COP(=O)(O)OP(=O)(O)OP(=O)(O)O)[C@@H](O)[C@H]1O [ATP, Adenosine 5-triphosphate]
nucleotide-evoked currents: no ATP- and CTP-evoked currents were detected

Nc1ccn([C@@H]2O[C@H](COP(=O)(O)OP(=O)(O)OP(=O)(O)O)[C@@H](O)[C@H]2O)c(=O)n1 [CTP]
nucleotide-evoked currents: no ATP- and CTP-evoked currents were detected

From publication PMC5362899, “Structural insights into the nucleotide base specificity of P2X receptors” (Scientific Reports, 2017)
